Source: patent publication US20110294992A1, “METAL RESPONSIVE MRI-AGENTS” (The Regents of the University of California, priority 2010, published 2011)
Values joined by “and” are separate entries in the source; they are usually repeats but may differ in a detail not shown here. Equal entries are not always repeated. Marks after values point to notes of the source that are not given here.

What was measured:
Format in all cases: physicochemical
[1] = Longitudinal relaxivity (r1) turn-on response to Cu+ from T1 measurements at 60 MHz; details: pH 7, 37° C.; for r1 (1 equiv Cu): 20 mM HEPES buffer
Procedure: (§1) The longitudinal relaxivity values for the CG contrast agents in the absence or presence of copper ions were determined using T1 measurements at 60 MHz. Studies were performed at 37° C. in 20 mM HEPES buffered to pH 7, and solutions of the purified CG sensors for relaxivity experiments contained 0.2 mM Gd^3+ as determined by ICP-OES. Spectroscopic data are collected in Table 1.
Upon addition of up to 1 equiv of copper ions, the relaxivity values of the CG contrast agents increase, establishing the ability of these probes to sense copper using the MR modality (Table 1, FIG. 3). CG2, CG3, CG4, and CG5 respond to Cu^+ with relaxivity increases ranging from 92% to 360%. […] These values represent the largest relaxivity enhancements observed to date for metal-activated MR contrast agents and a ca. 9-fold improvement in copper ion response compared to CG1 (41% increase). The observed differences in turn-on Cu^+ responses for benzyl-substituted CG4 (290% increase) versus methyl-substituted CG5 (92% increase) with the same pyridyl-thioether receptor show the marked effects that small peripheral substitutions can have on relaxivity properties.

[2] = Metal ion selectivity of relaxivity response (competing metal ions alone or with added copper); details: relaxivity at 60 MHz, 20 mM HEPES, pH 7, 37° C.
Procedure: FIG. 6. Relaxivity responses of CG2 to various metal ions. White bars represent the addition of an excess of the appropriate metal ion (10 mM for Na^+, 2 mM for K^+, Mg^2+, and Ca^2+, and 0.2 mM for Fe^2+, Fe^3+, Cu^2+) to a 0.2 mM solution of CG2. Response to Zn^2+ was measured both at 0.2 mM Zn^2+ (Zn^2+1×) and 2 mM Zn^2+ (Zn^2+10×). Black bars represent the subsequent addition of 0.2 mM Cu^+ to the CG2 solution. Relaxivity measurements were acquired at 37° C. in 20 mM HEPES buffer, pH 7, at a proton Larmor frequency of 60 MHz.
The potential ability of this new family of CG sensors to sense bioavailable copper pools in either or both its predominant oxidation states represents a significant advance over the initial CG1 compound.

[3] = Nuclear magnetic relaxation dispersion (NMRD) profiles, Solomon-Bloembergen-Morgan fit; details: for τs0 (electronic relaxation time at zero field) / r1p 20 MHz 25° C. / a (distance of closest approach of outer-sphere water protons) / Δ^2 (average quadratic transient zero field splitting) / τv (electronic correlation time) / q / τR (rotational correlation time): copper free; for r1p 20 MHz 25° C.: 0.5 mM, 20 mM HEPES pH 7; for a (distance of closest approach of outer-sphere water protons) / Δ^2 (average quadratic transient zero field splitting) / τv (electronic correlation time): best-fit value; for q: fixed in the fitting procedure; for τR (rotational correlation time): not experimentally determined, assumed equal to corresponding q ≠ 0 complex (CG5: average of the other complexes)
Procedure: FIG. 9. ^1H Nuclear magnetic relaxation dispersion profiles of CG3 and CG3+Cu^+ acquired at 25° C. The solid lines represent the best fit profiles.
As a secondary, independent set of experiments to further probe the mechanisms of copper ion sensing by the CG contrast agents, we also performed nuclear magnetic relaxation dispersion (NMRD) measurements of these sensors in the absence and in the presence of copper ions using a field cycling relaxometer (FIG. 9). The profiles obtained were analyzed following Solomon-Bloembergen-Morgan theory^36-38 for the inner-sphere relaxivity and the Freed model^115 for the outer-sphere relaxivity, fixing the diffusion coefficient (D) at […], the distance between Gd^3+ and the inner sphere water protons (r) at 3.1 Å, and the inner sphere exchange lifetime (τM) at 160 ns, the reported value for the parent complex Gd^3+-DO3A. Profiles were obtained for all compounds in the copper-free state. Profiles in the presence of Cu^n+ were obtained for CG2-4 (Cu^+) and CG6 (Cu^2+).
In fact, the measured outer-sphere relaxivities were so low that, in order to obtain a reasonable fit, the distance of closest approach of outer-sphere water protons (a) was allowed to vary. The distances obtained for the CG complexes (4.2-4.8 Å) were markedly longer than what is observed for typical Gd^3+ contrast agents with greater water access (3.8-4 Å). These values correlate with the copper-free relaxivities of CG2-6; longer a values give lower relaxivities and shorter a values give higher relaxivities. For Cu^+-sensing agents CG2-4, the estimated change in q of 2 as determined by DIS measurements was also observed in the fitted NMRD data. In fact, any attempt to fit the observed NMRD profiles with q=1 led to very poor agreement between experimental and calculated values. The change in q of 1 for CG6 upon addition of Cu^2+ as determined by NMRD is consistent with the lower turn-on response observed with this complex compared to CG2-4. The reduced q modulation for CG6 relative to CG2-4 could indicate that the carboxylic acid moiety used for Cu^2+ binding also interacts with the Gd^3+ center in the Cu^2+-bound state. The fitted rotational correlation times (τR) for copper-bound CG complexes all fall within the range expected for Gd^3+ complexes with molecular weights of 700-800 D. τR values for copper-free CG2-6 were fixed to values close to their copper-bound analogues as fits of NMRD data for q=0 complexes are not sensitive to small changes in τR. The values of Δ^2 (average quadratic transient zero field splitting), τv (electronic correlation time), and τs0 (electronic relaxation time at zero field), which govern the electronic relaxation time, are relatively similar to each other. These NMRD values are closer to those of Gd^3+-DTPA than Gd^3+-DOTA, reflecting the asymmetry of CG2-6.^64

[4] = Electrochemical Cu2+/Cu+ reduction potentials of copper-bound CG complexes; details: PBS buffer, pH 7.4
Procedure: (§2) CG6 is a unique member of the CG family that is equally responsive to both Cu^+ and Cu^2+. Addition of either Cu^+ or Cu^2+ to CG6 triggers a maximum 73% relaxivity turn-on from r1=2.2 mM^−1s^−1 to r1=3.8 mM^−1s^−1. […] On the other hand, copper-bound CG6, which responds to both Cu^+ and Cu^2+, has the least positive Cu^2+/Cu^+ reduction potential at +0.13 V.

[5] = Longitudinal relaxivity (r1) from T1 measurements at 60 MHz, absence of copper; details: for r1 (no Cu): no copper, 60 MHz, 20 mM HEPES buffer, pH 7, 37° C., 0.2 mM Gd^3+
Procedure: as §1
Nuclear magnetic relaxation dispersion (NMRD) experiments provide supporting evidence for this proposal (vide infra).

[6] = Longitudinal relaxivity (r1) turn-on response to Cu2+ from T1 measurements at 60 MHz; details: pH 7, 37° C.
Procedure: as §1, §2

[7] = Dysprosium-induced 17O NMR shift (DIS) experiments for q; details: for q (estimated number of inner-sphere water molecules): calculated from q = 9 DyCl3
Procedure: FIG. 8. Plot of [DyCG2] vs. −Δ ppm of the ^17O signal of H2O in the absence and presence of 1 equiv Cu^+. Spectra were acquired at room temperature in 20 mM HEPES buffer, pH 7, at a ^17O Larmor frequency of 67.8 MHz.
To circumvent these issues, we turned our attention to an alternative method for obtaining q values, namely the application of ^17O NMR spectroscopy to Dy^3+ analogs of the CG sensors (DyCG2-6).^114 Specifically, interactions of water ligands with paramagnetic Dy^3+ ions lead to an upfield shift of the ^17O signals of H2O in a manner proportional to both the concentration of Dy^3+ and q. Moreover, this lanthanide-induced shift is largely insensitive to the non-water ligands coordinated to the paramagnetic metal center.^114 Dysprosium-induced shift (DIS) experiments for CG2 and CG3 were performed in 20 mM HEPES buffered to pH 7; CG4 and CG5 spectra were acquired in 10% acetonitrile in 20 mM HEPES buffered to pH 7 owing to solubility and stability of the Cu^+-bound complexes at higher Dy^3+ concentrations required for the DIS measurements (1-200 mmol/kg H2O). Dy concentrations were calculated using molality (with respect to H2O) since the ^17O shift represents the interaction between Dy^3+ and H2O; addition of CH3CN aids in stabilizing certain complexes but should not affect the DIS. The spectral results were calibrated to a DyCl3 standard (q=9) to determine the number of bound water molecules for the CG sensors with and without added Cu^+. A plot of varying DyCl3 concentrations versus DIS in pH 7 HEPES buffer has a slope of 324 ppm/(mol/kg H2O), which corresponds to a 36 ppm/(mol/kg H2O) shift per bound water molecule.
The effects of DyCG2 on the chemical shift of ^17O-labeled H2O were determined in the absence and presence of 1 equiv Cu^+ at various concentrations of Dy^3+ (FIG. 8). In the absence of Cu^+, the measured ^17O shift response for DyCG2 is 9 ppm/(mol/kg H2O), corresponding to q=0.3. When 1 equiv of Cu^+ is added, the observed shift response increases to 72 ppm/(mol/kg H2O), corresponding to q=2.0. […] DIS measurements of DyCG4 and DyCG5 without Cu^+ show slopes of 7 ppm/(mol/kg H2O) (q=0.2) and 12 ppm/(mol/kg H2O) (q=0.3), respectively. Cu^+ binding increases the DIS slopes for DyCG4 and DyCG5 to […] ([…]) and 41 ppm/(mol/kg H2O) (q=1.0), respectively.

[8] = 20 mM HEPES, pH 7, 1 equiv Cu^+
[9] = 10% CH3CN in 20 mM HEPES pH 7, 1 equiv Cu^+
[10] = 10% CH3CN in 20 mM HEPES pH 7, no Cu^+

O=C([O-])CN1CCN(CC(=O)[O-])CCN(Cc2cccc(CN3CCSCCSCCSCC3)n2)CCN(CC(=O)[O-])CC1.[Gd+3] [CG3]
r1 (1 equiv Cu) [1]: 6.9 mM^−1s^−1 and 6.9^b mM^−1s^−1
redox specificity of relaxivity response (Cu^+ vs Cu^2+) [2]: give turn-on relaxivity increases with Cu^+ but do not respond to Cu^2+
τs0 (electronic relaxation time at zero field) [3]: 96 ps
r1p 20 MHz 25° C. [3]: 1.6 mM⁻¹ s⁻¹
a (distance of closest approach of outer-sphere water protons) [3]: 4.7 ± 0.09 Å
Δ^2 (average quadratic transient zero field splitting) [3]: 3.2 ± 0.7 10^19 s^−2
τv (electronic correlation time) [3]: 27 ± 4.4 ps
q [3]: 0^c
τR (rotational correlation time) [3]: 130^d ps
Cu^2+/+ E1/2 [4]: 0.58 V vs. SHE
r1 (no Cu) [5]: 1.5 mM⁻¹ s⁻¹

CCSCCN(CC(=O)[O-])Cc1cccc(CN2CCN(CC(=O)[O-])CCN(CC(=O)[O-])CCN(CC(=O)[O-])CC2)n1.[Gd+3] [CG6]
% increase in r1 ([1]; 1 equiv Cu^+ vs no Cu, 20 mM HEPES): 73%
r1 (1 equiv Cu) [1]: 3.8 mM^−1s^−1 and 3.8^b,c mM^−1s^−1
redox specificity of relaxivity response (Cu^+ vs Cu^2+) [2]: responds to both Cu^+ and Cu^2+ with the same relaxivity turn-on
τs0 (electronic relaxation time at zero field) [3]: 61 ps
r1p 20 MHz 25° C. [3]: 2.2 mM⁻¹ s⁻¹
a (distance of closest approach of outer-sphere water protons) [3]: 4.2 ± 0.13 Å
Δ^2 (average quadratic transient zero field splitting) [3]: 8.4 ± 2.0 10^19 s^−2
τv (electronic correlation time) [3]: 16 ± 2.7 ps
q [3]: 0^c
τR (rotational correlation time) [3]: 80^d ps
change in q ([3]; upon addition of Cu^2+, determined by NMRD): 1
% increase in r1 ([6]; 1 equiv Cu^2+ vs no Cu, 20 mM HEPES): 73%
r1 (1 equiv Cu) ([6]; 1 equiv Cu^2+, 20 mM HEPES buffer): 3.8 mM^−1s^−1 and 3.8^b,c mM^−1s^−1
r1 (no Cu) [5]: 2.2 mM⁻¹ s⁻¹

O=S(=O)([O-])[O-].[Cu+2] [CuSO4]
relaxivity ([5]; 20 mM HEPES buffer at 60 MHz and 37° C.): < 0.1 mM⁻¹ s⁻¹

CCSCCN(CCSCC)Cc1cccc(CN2CCN(CC(=O)[O-])CCN(CC(=O)[O-])CCN(CC(=O)[O-])CC2)n1.[Dy+3] [DyCG2]
−Δ ppm/[Dy] (DIS slope) [7, 8]: 72 ppm/(mol/kg H2O)
q (estimated number of inner-sphere water molecules) [7, 8]: 2.0
−Δ ppm/[Dy] (DIS slope) ([7]; 20 mM HEPES, pH 7, no Cu^+): 9 ppm/(mol/kg H2O)

O=C([O-])CN1CCN(CC(=O)[O-])CCN(Cc2cccc(CN3CCSCCSCCSCC3)n2)CCN(CC(=O)[O-])CC1.[Dy+3] [DyCG3]
−Δ ppm/[Dy] (DIS slope) [7, 8]: 79 ppm/(mol/kg H2O)
q (estimated number of inner-sphere water molecules) [7, 8]: 2.2
−Δ ppm/[Dy] (DIS slope) ([7]; 20 mM HEPES, pH 7, no Cu^+): 11 ppm/(mol/kg H2O)

CCSCCN(Cc1ccccc1)Cc1cccc(CN2CCN(CC(=O)[O-])CCN(CC(=O)[O-])CCN(CC(=O)[O-])CC2)n1.[Dy+3] [DyCG4]
−Δ ppm/[Dy] (DIS slope) [7, 9]: 84 ppm/(mol/kg H2O)
q (estimated number of inner-sphere water molecules) [7, 9]: 2.1
−Δ ppm/[Dy] (DIS slope) [7, 10]: 7 ppm/(mol/kg H2O)

CCSCCN(C)Cc1cccc(CN2CCN(CC(=O)[O-])CCN(CC(=O)[O-])CCN(CC(=O)[O-])CC2)n1.[Dy+3] [DyCG5]
−Δ ppm/[Dy] (DIS slope) [7, 9]: 41 ppm/(mol/kg H2O)
q (estimated number of inner-sphere water molecules) [7, 9]: 1.0
−Δ ppm/[Dy] (DIS slope) [7, 10]: 12 ppm/(mol/kg H2O)
